Where a SMILES comes first, the peptide text is derived from it. Where no end group is shown, it is not given here. [ ]: non-standard residue; d: D form. The star is where a group is joined. PEG 40 kDa = PEG (40 kDa) covalently attached to Cys; C14 acyl = 14 carbon fatty acyl group; Stearoyl = CCCCCCCCCCCCCCCCCC(=O)*; Aib = CC(C)(N)C(=O)O
What was measured:
GLP-1 receptor = target: T1, GLP-1 receptor (Homo sapiens, UniProt P43220); experiment: cAMP synthesis functional assay (firefly luciferase reporter in HEK293 cells), GLP-1 receptor; format: cell-based; conditions: for GLP-1 Receptor relative activity: relative to the standard (Std.) EC50 of the same run
T1 construct: expressed in transfected cells; host or cells: HEK293

GIP receptor = target: T2, GIP receptor (Homo sapiens, UniProt P48546); experiment: cAMP synthesis functional assay (firefly luciferase reporter in HEK293 cells), GIP receptor; format: cell-based; conditions: for GIP Receptor relative activity: relative to the standard (Std.) EC50 of the same run; for EC50: GIP Receptor EC50, cAMP luciferase reporter assay as in Example 16
T2 construct: expressed in transfected cells; host or cells: HEK293
T2 sequence (P48546 22-466): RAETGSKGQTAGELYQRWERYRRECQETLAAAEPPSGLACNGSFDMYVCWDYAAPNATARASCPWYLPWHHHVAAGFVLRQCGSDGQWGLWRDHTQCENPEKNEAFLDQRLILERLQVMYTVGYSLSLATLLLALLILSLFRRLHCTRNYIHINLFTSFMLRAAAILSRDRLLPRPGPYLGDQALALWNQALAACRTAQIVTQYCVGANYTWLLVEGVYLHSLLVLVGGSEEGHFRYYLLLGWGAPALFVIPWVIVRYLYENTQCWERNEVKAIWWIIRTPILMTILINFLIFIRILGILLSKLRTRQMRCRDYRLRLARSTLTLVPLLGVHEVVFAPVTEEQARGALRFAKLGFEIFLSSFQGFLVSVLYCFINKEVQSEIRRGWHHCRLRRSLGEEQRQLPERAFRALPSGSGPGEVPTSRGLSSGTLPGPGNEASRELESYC

[1] = system: glucagon receptor, GLP-1 receptor or GIP receptor; experiment: Agonist profile across receptors assigned from the cAMP reporter assay data; format: cell-based; conditions: assigned from the in vitro EC50 data of Tables 1-4
glucagon receptor = target: T3, glucagon receptor (Homo sapiens, UniProt P47871); experiment: cAMP synthesis functional assay (firefly luciferase reporter in HEK293 cells), glucagon receptor; format: cell-based; conditions: for Glucagon Receptor relative activity: relative to the standard (Std.) EC50 of the same run
T3 construct: expressed in transfected cells; host or cells: HEK293

[2] = Blood glucose levels of mice after peptide injection
[3] = Body weight of mice after peptide injection; conditions: DIO mice
[4] = Food intake of mice after peptide injection; format: in vivo; conditions: for total food intake: versus vehicle control
[5] = Example 29, mice, QD for 7 days, 25 nmol/kg
[6] = Table 5, relative to the native hormone
[7] = Example 20, DIO mice, subcutaneous QW, 70 or 210 nmol/kg/week
[8] = Example 34, DIO mice, 10 or 35 nmol/kg
[9] = Example 34, DIO mice, higher dose (35 nmol/kg), Day 0 versus Day 7

T1 sequence (P43220 24-463, species assumed): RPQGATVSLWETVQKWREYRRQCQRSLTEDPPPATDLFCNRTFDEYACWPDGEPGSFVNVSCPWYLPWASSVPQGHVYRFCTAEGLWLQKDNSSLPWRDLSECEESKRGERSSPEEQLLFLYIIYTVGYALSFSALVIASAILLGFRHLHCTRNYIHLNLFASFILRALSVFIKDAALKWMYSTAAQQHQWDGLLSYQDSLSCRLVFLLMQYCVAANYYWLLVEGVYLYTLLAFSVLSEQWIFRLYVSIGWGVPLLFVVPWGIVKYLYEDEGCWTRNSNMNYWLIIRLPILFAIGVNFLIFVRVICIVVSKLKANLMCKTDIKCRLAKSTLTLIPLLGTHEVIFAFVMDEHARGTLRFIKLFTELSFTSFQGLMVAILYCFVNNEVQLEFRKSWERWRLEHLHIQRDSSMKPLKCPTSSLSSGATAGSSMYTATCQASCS
T3 sequence (P47871 26-477): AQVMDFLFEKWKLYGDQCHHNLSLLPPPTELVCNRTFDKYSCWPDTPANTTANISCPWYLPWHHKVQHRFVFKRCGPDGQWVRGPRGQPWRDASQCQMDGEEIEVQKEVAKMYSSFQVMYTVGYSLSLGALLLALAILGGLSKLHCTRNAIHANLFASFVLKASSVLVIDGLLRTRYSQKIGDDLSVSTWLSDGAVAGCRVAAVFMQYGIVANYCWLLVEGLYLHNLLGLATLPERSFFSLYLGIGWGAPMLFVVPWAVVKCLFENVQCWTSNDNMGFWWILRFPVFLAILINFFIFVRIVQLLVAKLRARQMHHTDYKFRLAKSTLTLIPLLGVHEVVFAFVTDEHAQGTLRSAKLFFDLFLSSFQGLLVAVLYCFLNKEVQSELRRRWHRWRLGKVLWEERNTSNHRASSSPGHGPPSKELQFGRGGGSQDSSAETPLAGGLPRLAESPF

CCCCCCCCCCCCCC(=O)NCCCC[C@H](NC(=O)[C@H](CO)NC(=O)[C@@H]1CCCN1C(=O)[C@@H]1CCCN1C(=O)[C@@H]1CCCN1C(=O)[C@H](C)NC(=O)CNC(=O)[C@H](CO)NC(=O)[C@H](CO)NC(=O)[C@@H]1CCCN1C(=O)CNC(=O)CNC(=O)[C@H](C)NC(=O)[C@H](CC(C)C)NC(=O)[C@H](CC(C)C)NC(=O)[C@H](Cc1c[nH]c2ccccc12)NC(=O)[C@H](CC(N)=O)NC(=O)[C@@H](NC(=O)[C@H](Cc1ccccc1)NC(=O)[C@H](CCC(=O)O)NC(=O)C(C)(C)NC(=O)[C@H](C)NC(=O)[C@H](C)NC(=O)[C@H](CCC(N)=O)NC(=O)[C@H](CCCCN)NC(=O)[C@H](CC(=O)O)NC(=O)[C@H](CC(C)C)NC(=O)[C@H](Cc1ccc(O)cc1)NC(=O)[C@@H](NC(=O)[C@H](CO)NC(=O)[C@H](Cc1ccc(O)cc1)NC(=O)[C@H](CC(=O)O)NC(=O)[C@H](CO)NC(=O)[C@@H](NC(=O)[C@H](Cc1ccccc1)NC(=O)[C@@H](NC(=O)CNC(=O)[C@H](CCC(=O)O)NC(=O)C(C)(C)NC(=O)[C@@H](N)Cc1ccc(O)cc1)[C@@H](C)O)[C@@H](C)O)[C@@H](C)CC)C(C)C)C(N)=O [mt-260]
EC50 (GLP-1 receptor; GLP-1 Receptor EC50, cAMP luciferase reporter assay as in Example 16): 6.8 pM
GLP-1 Receptor relative activity (GLP-1 receptor): 257.35%
GIP Receptor relative activity (GIP receptor): 583.33%
receptor activity profile (glucagon / GLP-1 / GIP agonism) [1]: exhibited activity at the GIP, GLP-1, and glucagon receptors
Glucagon Receptor relative activity (glucagon receptor): 6.64%
decrease in blood glucose levels [2, 5]: ~50%

CCCCCCCCCCCCCCCCCC(=O)NCCCC[C@H](NC(=O)[C@H](CO)NC(=O)[C@@H]1CCCN1C(=O)[C@@H]1CCCN1C(=O)[C@@H]1CCCN1C(=O)[C@H](C)NC(=O)CNC(=O)[C@H](CO)NC(=O)[C@H](CO)NC(=O)[C@@H]1CCCN1C(=O)CNC(=O)CNC(=O)[C@H](C)NC(=O)[C@H](CC(C)C)NC(=O)[C@H](CC(C)C)NC(=O)[C@H](Cc1c[nH]c2ccccc12)NC(=O)[C@H](CC(N)=O)NC(=O)[C@@H](NC(=O)[C@H](Cc1ccccc1)NC(=O)[C@H](CCC(=O)O)NC(=O)C(C)(C)NC(=O)[C@H](C)NC(=O)[C@H](C)NC(=O)[C@H](CCC(N)=O)NC(=O)[C@H](CCCCN)NC(=O)[C@H](CC(=O)O)NC(=O)[C@H](CC(C)C)NC(=O)[C@H](Cc1ccc(O)cc1)NC(=O)[C@@H](NC(=O)[C@H](CO)NC(=O)[C@H](Cc1ccc(O)cc1)NC(=O)[C@H](CC(=O)O)NC(=O)[C@H](CO)NC(=O)[C@@H](NC(=O)[C@H](Cc1ccccc1)NC(=O)[C@@H](NC(=O)CNC(=O)[C@H](CCC(=O)O)NC(=O)C(C)(C)NC(=O)[C@@H](N)Cc1ccc(O)cc1)[C@@H](C)O)[C@@H](C)O)[C@@H](C)CC)C(C)C)C(N)=O [mt-262]
receptor activity profile (glucagon / GLP-1 / GIP agonism) [1]: exhibited activity at the GIP, GLP-1, and glucagon receptors
decrease in blood glucose levels [2, 5]: ~50%

CC[C@H](C)[C@H](NC(=O)[C@H](CO)NC(=O)[C@H](Cc1ccc(O)cc1)NC(=O)[C@H](CC(=O)O)NC(=O)[C@H](CO)NC(=O)[C@@H](NC(=O)[C@H](Cc1ccccc1)NC(=O)[C@@H](NC(=O)CNC(=O)[C@H](CCC(=O)O)NC(=O)C(C)(C)NC(=O)[C@@H](N)Cc1ccc(O)cc1)[C@@H](C)O)[C@@H](C)O)C(=O)N[C@@H](Cc1ccc(O)cc1)C(=O)N[C@@H](CC(C)C)C(=O)N[C@@H](CC(=O)O)C(=O)N[C@@H](CCCCN)C(=O)N[C@@H](CCC(N)=O)C(=O)N[C@@H](C)C(=O)N[C@@H](C)C(=O)NC(C)(C)C(=O)N[C@@H](CCC(=O)O)C(=O)N[C@@H](Cc1ccccc1)C(=O)N[C@H](C(=O)N[C@@H](CC(N)=O)C(=O)N[C@@H](Cc1c[nH]c2ccccc12)C(=O)N[C@@H](CC(C)C)C(=O)N[C@@H](CC(C)C)C(=O)N[C@@H](C)C(=O)NCC(=O)NCC(=O)N1CCC[C@H]1C(=O)N[C@@H](CO)C(=O)N[C@@H](CO)C(=O)NCC(=O)N[C@@H](C)C(=O)N1CCC[C@H]1C(=O)N1CCC[C@H]1C(=O)N1CCC[C@H]1C(=O)N[C@@H](CO)C(=O)N[C@@H](CCCCN)C(N)=O)C(C)C [mt-263]
EC50 (GIP receptor): 3.1 pM
decrease in blood glucose levels ([2]; Example 30, 10 nmol/kg dose, Day 7 compared to Day 0): ~-80 mg/dL

CCCCCCCCCCCCCCCCCC(=O)NCCCC[C@H](NC(=O)[C@H](CO)NC(=O)[C@@H]1CCCN1C(=O)[C@@H]1CCCN1C(=O)[C@@H]1CCCN1C(=O)[C@H](C)NC(=O)CNC(=O)[C@H](CO)NC(=O)[C@H](CO)NC(=O)[C@@H]1CCCN1C(=O)CNC(=O)CNC(=O)[C@H](C)NC(=O)[C@H](CC(C)C)NC(=O)[C@H](CC(C)C)NC(=O)[C@H](Cc1c[nH]c2ccccc12)NC(=O)[C@H](CC(N)=O)NC(=O)[C@@H](NC(=O)[C@H](Cc1ccccc1)NC(=O)[C@H](CCC(=O)O)NC(=O)C(C)(C)NC(=O)[C@H](C)NC(=O)[C@H](C)NC(=O)[C@H](CCC(N)=O)NC(=O)[C@H](CCCCN)NC(=O)[C@H](CC(=O)O)NC(=O)[C@H](CC(C)C)NC(=O)[C@H](Cc1ccc(O)cc1)NC(=O)[C@@H](NC(=O)[C@H](CO)NC(=O)[C@H](Cc1ccc(O)cc1)NC(=O)[C@H](CC(=O)O)NC(=O)[C@H](CO)NC(=O)[C@@H](NC(=O)[C@H](Cc1ccccc1)NC(=O)[C@@H](NC(=O)CNC(=O)[C@H](CCC(N)=O)NC(=O)C(C)(C)NC(=O)[C@@H](N)Cc1ccc(O)cc1)[C@@H](C)O)[C@@H](C)O)[C@@H](C)CC)C(C)C)C(N)=O [mt-279] (H-Y[Aib]QGTFTSDYSIYLDKQAA[Aib]EFVNWLLAGGPSSGAPPPSK(Stearoyl)-NH2; N-terminus assumed)
% activity at the GLP-1 receptor (GLP-1 receptor; [6]): 420%
GLP-1 Receptor relative activity (GLP-1 receptor): 419.57%
EC50 (GIP receptor): 4.5 pM
% activity at the GIP receptor (GIP receptor; [6]): 527%
GIP Receptor relative activity (GIP receptor): 526.67%
body weight ([3]; Example 31, subcutaneous daily for 1 week, 10 nmol/kg): caused significant weight loss in the mice
receptor activity profile (glucagon / GLP-1 / GIP agonism) [1]: exhibited activity at the GIP, GLP-1, and glucagon receptors
EC50 (glucagon receptor; Glucagon Receptor EC50, cAMP luciferase reporter assay as in Example 16): 6.9 pM
% activity at the glucagon receptor (glucagon receptor; [6]): 733%
Glucagon Receptor relative activity (glucagon receptor): 733.33%

Pro3 C24 GIP NH2 (1-42) 40K PEG: amino acids 1-42 of GIP with Pro at position 3, Cys at position 24 attached to 40K PEG, C-terminal amide (YAPGTFISDYSIAMDKIHQQDFVC(PEG 40 kDa)WLLAQKGKKNDWKHNITQ-NH2) [reference compound]
reduction of cumulative food intake [4, 7]: neither the GIP antagonist nor the GIP agonist peptide were effective
reduction of body weight ([3]; Example 20, subcutaneous QW, 70 or 210 nmol/kg/week, compared with pegylated glucagon/GLP-1 co-agonist): neither the GIP antagonist nor the GIP agonist peptide were effective
reduction of blood glucose levels [2, 7]: neither the GIP antagonist nor the GIP agonist peptide were effective

mt-309: acylated version of mt-274: C-terminal Lys with C14 fatty acyl group, 40 kDa PEG on Cys at position 24 (Y[Aib]EGTFTSDYSIYLDKQAA[Aib]EFVC(PEG 40 kDa)WLLAGGPSSGAPPPSK(C14 acyl)-NH2)
total change in body weight (%), effect of dosing frequency ([3]; Example 37, subcutaneous QD 5 nmol/kg, every 2nd day 10 nmol/kg or QW 30 nmol/kg, Day 6): approximately the same as the total change in body weight for mice injected QD
decrease in blood glucose levels, effect of dosing frequency ([2]; Example 37, DIO mice, QD 5, every 2nd day 10 or QW 30 nmol/kg, Day 6): a QW injection of mt-309 achieved the same decrease in blood glucose levels as a QD injection

mt-311: non-acylated version of mt-298; PEG on Cys at position 24, C-terminal Lys (Y[Aib]EGTFTSDYSIYLDKQAA[Aib]EFVC(PEG 40 kDa)WLLAGGPSSGAPPPSK-NH2)
total food intake [4, 8]: decreased, as compared to the mice injected with a vehicle control
blood glucose levels ([2]; Example 28, DIO mice, subcutaneous, 10 nmol/kg, Day 0 versus Day 7): decreased
blood glucose levels [2, 9]: decreased upon administration of the higher dose

mt-331: same amino acid sequence as mt-311, differing in the pegylation linker; no acyl group on Lys at position 40 (Y[Aib]EGTFTSDYSIYLDKQAA[Aib]EFVC(PEG 40 kDa)WLLAGGPSSGAPPPSK-NH2; also: PEG linker structure not shown)
total food intake [4, 8]: decreased, as compared to the mice injected with a vehicle control
total food intake ([4]; Example 35, 3 or 10 nmol/kg): decreased in comparison to mice administered the vehicle control
blood glucose levels [2, 9]: decreased upon administration of the higher dose

mt-353: same sequence as mt-331 with a C14 fatty acyl group on the Lys at position 40 (Y[Aib]EGTFTSDYSIYLDKQAA[Aib]EFVC(PEG 40 kDa)WLLAGGPSSGAPPPSK(C14 acyl)-NH2)
total food intake ([4]; Example 35, 3 or 10 nmol/kg): decreased in comparison to mice administered the vehicle control
blood glucose levels ([2]; Example 35, C57Bl/6 mice on diabetogenic diet): additionally caused blood glucose levels to decrease
